# Measured values published in patent US8540999B2, “Allergenic proteins and peptides from Japanese cedar pollen” (Merck Patent GmbH, priority 1991, dated 2013).
# Ends that are not written are not given here.
# B1: Cry j IIC: recombinant peptide, amino acids 46-163 of Cry j II, SEQ ID NO: 187 (protein, listed as Cryptomeria japonica)
# chain: MGHHHHHHEFRKVEHSRHDAINIFNVEKYGAVGDGKHDCTEAFSTAWQAACKNPSAMLLVPGSKKFVVNNLFFNGPCQPHFTFKVDGIIAAYQNPASWKNNRIWLQFAKLTGFTLMGKGVIDGQGKQW
# B2: Cry j IID: recombinant peptide, amino acids 164-280 of Cry j II, SEQ ID NO: 188 (protein, listed as Cryptomeria japonica)
# chain: MGHHHHHHEFWAGQCKWVNGREICNDRDRPTAIKFDFSTGLIIQGLKLMNSPEFHLVFGNCEGVKIIGISITAPRDSPNTDGIDIFASKNFHLQKNTIGTGDDCVAIGTGSSNIVIEDLICGPGHGI
# B3: Cry j IIE: recombinant peptide, amino acids 281-396 of Cry j II, SEQ ID NO: 189 (protein, listed as Cryptomeria japonica)
# chain: MGHHHHHHEFSIGSLGRENSRAEVSYVHVNGAKFIDTQNGLRIKTWQGGSGMASHIIYENVEMINSENPILINQFYCTSASACQNQRSAVQIQDVTYKNIRGTSATAAAIQLKCSDSMPCKDIKLSD
# B4: Cry j IIF: recombinant peptide, amino acids 397-514 of Cry j II, SEQ ID NO: 190 (protein, listed as Cryptomeria japonica)
# chain: MGHHHHHHEFISLKLTSGKIASCLNDNANGYFSGHVIPACKNLSPSAKRKESKSHKHPKTVMVENMRAYDKGNRTRILLGSRPPNCTNKCHGCSPCKAKLVIVHRIMPQEYYPQRWICSCHGKIYHP
# B5: rCry j II: recombinant Cry j II expressed in E. coli with His6 leader (protein, listed as Cryptomeria japonica)
# chain: MAMKLIAPMAFLAMQLIIMAAAEDQSAQIMLDSVVEKYLRSNRSLRKVEHSRHDAINIFNVEKYGAVGDGKHDCTEAFSTAWQAACKNPSAMLLVPGSKKFVVNNLFFNGPCQPHFTFKVDGIIAAYQNPASWKNNRIWLQFAKLTGFTLMGKGVIDGQGKQWWAGQCKWVNGREICNDRDRPTAIKFDFSTGLIIQGLKLMNSPEFHLVFGNCEGVKIIGISITAPRDSPNTDGIDIFASKNFHLQKNTIGTGDDCVAIGTGSSNIVIEDLICGPGHGISIGSLGRENSRAEVSYVHVNGAKFIDTQNGLRIKTWQGGSGMASHIIYENVEMINSENPILINQFYCTSASACQNQRSAVQIQDVTYKNIRGTSATAAAIQLKCSDSMPCKDIKLSDISLKLTSGKIASCLNDNANGYFSGHVIPACKNLSPSAKRKESKSHKHPKTVMVENMRAYDKGNRTRILLGSRPPNCTNKCHGCSPCKAKLVIVHRIMPQEYYPQRWICSCHGKIYHP
# Tests used:
# [1] = test system: Cry j I reactive T cells; assay: T cell proliferation assay, Cry j I primed T cell lines (Example 6); format: cell-based, human; details: for T cell reactivity: Example 21 narrative, parent peptides of CJI-44.8; for T cell line response: panel of twenty-five patients, FIG. 14
# Procedure: Viable cells were purified by LSM centrifugation and cultured in complete medium supplemented with 5 units recombinant human IL-2/ml and 5 units recombinant human IL-4/ml for up to three weeks until the cells no longer responded to lymphokines and were considered “rested”. The ability of the T cells to proliferate to selected peptides, recombinant Cry j I (rCry j I), purified native Cry j I, or recombinant Amb aI.1 (rAmb aI.1) or a positive control, phyto-hemaglutinin (PHA) was then assessed. For assay, 2×10^4 rested cells were restimulated in the presence of 2×10^4 autologous Epstein-Barr virus (EBV)-transformed B cells (prepared as described below) (gamma-irradiated with 25,000 RADS) with 2-50 μg/ml of selected peptides, Cry j I, purified native Cry j I or rAmb a I.1 or PHA, in a volume of 200 μl complete medium in duplicate or triplicate wells in 96-well round bottom plates for 2-4 days. […] Each well then received 1 μCi tritiated thymidine for 16-20 hours. The counts incorporated were collected onto glass fiber filter mats and processed for liquid scintillation counting. […] The titrations were used to optimize the dose of peptides in T cell assays. The maximum response in a titration of each peptide is expressed as the stimulation index (S.I.). The S.I. is the counts per minute (CPM) incorporated by cells in response to peptide, divided by the CPM incorporated by cells in medium only.
# The above procedure was followed with a number of other patients. […] The bars represent the positivity index. Above each bar is the percent of positive responses with an S.I. of at least two to the peptide or protein in the group of patients tested. In parenthesis above each bar are the mean stimulation indices for each peptide or protein for the group of patients tested.
# Autologous EBV-transformed cell lines were y-irradiated with 25,000 Rad and used as antigen presenting cells in secondary proliferation assays and secondary bulk stimulations. These EBV-transformed cell lines were made by incubating 5×10^6 PBL with 1 ml of B-59/8 Marmoset cell line (ATCC CRL1612, American Type Culture Collection, Rockville, Md.) conditioned medium in the presence of 1 μg/ml phorbol 12-myristate 13-acetate (PMA) at 37° C. for 60 minutes in 12×75 mm polypropylene round-bottom Falcon snap cap tubes (Becton Dickinson Labware, Lincoln Park, N.J.). These cells were then diluted to 1.25×10^6 cells/ml in RPMI-1640 as described above except supplemented with 10% heat-inactivated fetal bovine serum and cultured in 200 μl aliquots in flat bottom culture plates until visible colonies were detected. They were then transferred to larger wells until the cell lines were established.
# [2] = test system: Cry j II reactive T cells; assay: T cell proliferation assay, Cry j II primed T cell lines (Example 19); format: cell-based, human
# Procedure: Long term T cell lines were established by stimulation of 2×10^6 PBL/ml in bulk cultures of complete medium (RPMI-1640, 2 mM L-glutamine, 100 U/ml penicillin/streptomycin, 5×10^−5M 2-mercaptoethanol, and 10 mM HEPES supplemented with 5% heat inactivated human AB serum) with 10 μg/ml of partially purified native Cry j II for 7 days at 37° C. in a humidified 5% CO2 incubator to select for Cry j II reactive T cells. This amount of priming antigen was determined to be optimal for the activation of T cells from most Japanese cedar pollen Cry j II allergic patients. Viable cells were purified by LSM centrifugation and cultured in complete medium supplemented with 5 units recombinant human IL-2/ml and 5 units recombinant human IL-4/ml for up to three weeks until the cells no longer responded to lymphokines and were considered “rested”. The ability of the T cells to proliferate to peptides Cry j IIA (SEQ ID NO: 185) and Cry j IIB (SEQ ID NO: 186), recombinant Cry j II (rCry j II) (SEQ ID NO: 134), purified native Cry j II, was then assessed. For assay, 2×10^4 rested cells were restimulated in the presence of 2×10^4 autologous Epstein-Barr virus (EBV)-transformed B cells (prepared as described in Example 6) (gamma-irradiated with 25,000 RADS) with 2-50 ’g/ml of rCry j II (SEQ ID NO: 134), purified native Cry j II, peptides Cry j IIA (SEQ ID NO: 185) and Cry j IIB (SEQ ID NO: 186), positive control (PHA), negative control (Amb a I.1), in a volume of […] complete medium in duplicate or triplicate wells in 96-well round bottom plates for 2-4 days. […] Each well then received 1 μCi tritiated thymidine for 16-20 hours. The counts incorporated were collected onto glass fiber filter mats and processed for liquid scintillation counting. The maximum response in a titration of each peptide is expressed as the stimulation index (S.I.). The S.I. is the counts per minute (CPM) incorporated by cells in response to peptide, divided by the CPM incorporated by cells in medium only. A positivity index may be calculated by multiplying the mean S.I. (indicated above each bar in FIGS. 42 and 43) by the percentage of individuals responding to the peptide (indicated in parentheses above each bar in FIGS. 42 and 43). […]
# [3] = Solubility, pH range protocol procedure; format: physicochemical; details: pH range pH6 to pH8
# Excerpt: (§1) Of the above group of modified peptides, several peptides have been identified as “unique” modified peptides. […] Certain modified peptides are characterized as “unique” due to the difficulties encountered when developing a modified peptide which meets all of the stringent requirements of a “unique” peptide defined herein. In many cases, multiple modifications of a parent peptide are attempted prior to identifying a modified derivitive peptide which meets all the characteristics of a “unique” modified peptide. Unique modified peptides are particularly useful as candidate peptides for formulating injectable multipeptide therapeutic formulations of the invention because “unique” modified peptides are soluble and stable in the same physiologically acceptable pH range as well as elicit the necessary T cell reactivity of a therapeutic peptide of the invention. “Unique” modified peptides of the invention include but are not limited to the following group of modified peptides: CJ1-24.5, CJ1-43.39, CJ1-43.50, CJ1-44.8, and CJ1-44.9 all as shown in FIGS. 20 and 44. Example 21 describes the development and identification of “unique” modified peptides of the invention.
# (§2) Additional truncation of two C-terminal residues yielded 44.2 (SEQ ID NO: ). […] Thus, 44.2 (SEQ ID NO: ) was further modified by the addition of charged (hydrophilic residues) to the N-terminus and by replacement of the hydrophobic residue Val with the less hydrophobic residue Ala. […] CJI-44.8 (SEQ ID NO: 132) was stable and soluble at greater than 5 mg/ml over the pH range pH6-pH8 in an aqueous buffer.
# [4] = Stability in aqueous buffer; format: physicochemical; details: pH6 to pH8
# Excerpt: as §1, §2
# [5] = test system: patients' plasma IgE; assay: Direct binding assay of IgE to Cry j I, Cry j II and recombinant Cry j II (Example 18); parameters: species or system human
# Procedure: Costar assay plates were coated with Cry j I or Cry j II at 2 μg/mL or recombinant Cry j II preparation at 10 μg/mL (approximately 20% pure) in a volume of 50 μL overnight at 4° C. The coating antigens were removed and the wells were blocked with 0.5% gelatin, PVP (polyvinyl pyrolidine) 1 mg/mL in PBS, 200 μL/well for 2 hours at room temperature. The anti-Cry j I monoclonal antibody, 4B11, was serially diluted in PBS-Tween 20 starting at a 1:1000 dilution. The human plasma were serially diluted in PBS-Tween at a starting dilution of 1:2. For this set 23 plasma samples from patients symptomatic for Japanese cedar pollen allergy chosen for IgE binding analysis. The first antibody incubation proceeded overnight at 4° C. Following three washes with PBS-Tween the second antibodies were added (biotinylated goat anti-mouse Ig or goat anti-human IgE both at 1:2000) and incubated for two hours at room temperature at 100 μL/well. After washing 3 times, […]. This solution was removed and streptavidin-HRPO diluted to 1:10,000, was added at 100 μL/well. The color was allowed to develop for 2-5 minutes. The reaction was stopped by the addition of 100 μL/well of 1M phosphoric acid. Plates were read on a Microplate IL310 Autoreader (Biotek Instruments, Winooski, Vt.) with a 450 nm filter. The absorbance levels of duplicate wells were averaged. A positive binding result, indicated by a plus sign is determined to be a reading of two-fold or greater above background (no first antibody) at the second dilution of plasma ([…]).
molecule,measurement,setting,value
"CJ1-31: Cry j I peptide, SEQ ID NO: 56 (DVFYNGAYFVSSGKYEGGNI; listed as Cryptomeria japonica)",T cell reactivity,[1],high T-cell reactivity
same,T cell line response,[1],responded
"CJ1-32: Cry j I peptide, SEQ ID NO: 57 (SSGKYEGGNIYTKKEAFNVE; listed as Cryptomeria japonica)",T cell reactivity,[1],high T-cell reactivity
same,T cell line response,[1],responded
"Cry j IIG: SEQ ID NO: 191, amino acids 152-175 of Cry j II (GKGVIDGQGKQWWAGQCKWVNGRE; listed as Cryptomeria japonica)",T cell proliferative response,"[2]; 9 patients, FIG. 43",react
"Cry j IIH: SEQ ID NO: 192, amino acids 386-409 of Cry j II (DSMPCKDIKLSDISLKLTSGKIAS; listed as Cryptomeria japonica)",T cell proliferative response,"[2]; 9 patients, FIG. 43",react
DDAYSDDKSMKVTVAFNQFGDE [CJ1-43.39],solubility,[3]; aqueous sodium phosphate buffer,> 5000 µg/mL
same,stability,[4],stable
DEEGAYFVSSGKYEGGNIYTKKEAFNVEDE [CJ1-44.9],solubility,[3]; aqueous buffer,> 5000 µg/mL
same,stability,[4],stable
B1,T cell proliferative response,"[2]; 9 patients, FIG. 43",react
B2,T cell proliferative response,"[2]; 9 patients, FIG. 43",react
B3,T cell proliferative response,"[2]; 9 patients, FIG. 43",react
B4,T cell proliferative response,"[2]; 9 patients, FIG. 43",react
B5,plasma IgE binding response,[5]; patient #1034,negative
same,plasma IgE binding response,"[5]; patient plasma samples, FIGS. 31-33",further reduction in binding
same,plasma IgE binding response,[5]; patients #1143 and #1146,clearly positive
same,T cell proliferative response,"[2]; 9 patients, FIG. 43",react
same,T cell proliferative response,"[2]; n=6 patients, FIG. 42",respond well
